Test results as given in ChEMBL document CHEMBL5154721, “Discovery of HDAC6-Selective Inhibitor NN-390 with in Vitro Efficacy in Group 3 Medulloblastoma” (J Med Chem, 2022).
Active and inactive are the calls of the source. The rule behind the calls is not given here.

Columns and labels:
[1] = target: T1, Protein deacetylase HDAC6 (Homo sapiens) (UniProt Q9UBN7); assay: Inhibition of full length human recombinant HDAC6 in human HD-MB03 cells assessed as increase in acetylation of alpha tubulin at 53 nM for 6 hrs by western blotting anlaysis; assay type: cell-based
T1 sequence (whole entry): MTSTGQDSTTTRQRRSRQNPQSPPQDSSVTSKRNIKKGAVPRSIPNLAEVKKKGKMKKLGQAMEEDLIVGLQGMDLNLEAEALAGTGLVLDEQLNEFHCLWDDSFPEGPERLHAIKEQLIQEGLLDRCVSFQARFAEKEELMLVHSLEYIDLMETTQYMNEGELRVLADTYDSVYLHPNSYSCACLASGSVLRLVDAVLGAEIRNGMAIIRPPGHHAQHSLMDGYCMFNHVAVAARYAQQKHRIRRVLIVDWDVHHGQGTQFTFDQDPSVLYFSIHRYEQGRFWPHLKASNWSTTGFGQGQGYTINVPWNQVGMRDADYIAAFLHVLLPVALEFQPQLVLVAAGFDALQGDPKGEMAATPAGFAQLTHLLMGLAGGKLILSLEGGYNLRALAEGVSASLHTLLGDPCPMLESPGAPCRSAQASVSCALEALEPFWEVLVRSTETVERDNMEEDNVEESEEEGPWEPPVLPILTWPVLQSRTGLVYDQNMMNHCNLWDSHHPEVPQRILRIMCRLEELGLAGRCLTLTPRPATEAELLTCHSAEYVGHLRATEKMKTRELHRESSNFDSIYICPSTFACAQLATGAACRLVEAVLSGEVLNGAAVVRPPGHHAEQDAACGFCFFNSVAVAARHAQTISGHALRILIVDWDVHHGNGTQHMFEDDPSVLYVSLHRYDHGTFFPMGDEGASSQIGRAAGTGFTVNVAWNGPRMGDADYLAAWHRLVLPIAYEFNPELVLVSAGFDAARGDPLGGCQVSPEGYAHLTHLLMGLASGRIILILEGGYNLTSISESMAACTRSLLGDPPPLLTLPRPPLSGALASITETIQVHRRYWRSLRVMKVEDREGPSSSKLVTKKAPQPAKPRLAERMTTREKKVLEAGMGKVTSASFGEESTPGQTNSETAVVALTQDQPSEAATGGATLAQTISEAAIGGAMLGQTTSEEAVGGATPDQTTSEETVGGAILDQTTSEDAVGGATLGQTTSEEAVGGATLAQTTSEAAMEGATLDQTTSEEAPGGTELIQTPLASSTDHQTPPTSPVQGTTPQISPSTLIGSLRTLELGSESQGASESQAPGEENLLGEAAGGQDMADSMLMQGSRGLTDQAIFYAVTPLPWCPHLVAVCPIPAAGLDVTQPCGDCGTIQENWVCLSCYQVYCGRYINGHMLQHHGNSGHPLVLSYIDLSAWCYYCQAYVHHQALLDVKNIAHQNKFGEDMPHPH

MV4-11 [2] = assay: Induction of apoptosis in human MV4-11 cells assessed as early apoptotic cells at 0.75 uM after 24 hrs by Annexin V/PI staining based flow cytometric analysis (Rvb=2%); assay type: functional
MV4-11 [3] = assay: Induction of apoptosis in human MV4-11 cells assessed as viable cells at 0.25 uM after 24 hrs by Annexin V/PI staining based flow cytometric analysis (Rvb=58.28%); assay type: functional; conditions: read-out: Activity
[4] = Cytotoxicity against HUVEC cells assessed as inhibition of cell growth incubated for 72 hrs measured by spectrophotometer analysis; assay type: toxicity, cell-based; conditions: human
[5] = Dissociation constant, pKa of compound; assay type: physicochemical
MB002 = assay: Cytotoxicity against refractory human group 3 SU_MB002 cells; assay type: functional, cell-based
[6] = Stability in human plasma assessed as half life measured upto 60 mins by LC-MS/MS analysis; assay type: ADME, cell-free
MV4-11 [7] = assay: Induction of apoptosis in human MV4-11 cells assessed as early apoptotic cells at 2 uM after 24 hrs by Annexin V/PI staining based flow cytometric analysis (Rvb=2%); assay type: functional
[8] = target: T1, Protein deacetylase HDAC6 (Homo sapiens); assay: Inhibition of full length human recombinant HDAC6 in human MV4-11 cells assessed as increase in acetylation of histone H3 for 6 hrs by immunofluorescence imaging method; assay type: cell-based; conditions: dose 0.1-2 µM, DDE = dose-dependent effect
MV4-11 [9] = assay: Induction of apoptosis in human MV4-11 cells assessed as viable cells at 0.75 uM after 24 hrs by Annexin V/PI staining based flow cytometric analysis (Rvb=58.28%); assay type: functional; conditions: read-out: Activity
MV4-11 [10] = assay: Induction of apoptosis in human MV4-11 cells assessed as viable cells at 2 uM after 24 hrs by Annexin V/PI staining based flow cytometric analysis (Rvb=58.28%); assay type: functional; conditions: read-out: Activity
MV4-11 [11] = assay: Induction of apoptosis in human MV4-11 cells assessed as viable cells at 1 uM after 24 hrs by Annexin V/PI staining based flow cytometric analysis (Rvb=58.28%); assay type: functional; conditions: read-out: Activity
[12] = target: T1, Protein deacetylase HDAC6 (Homo sapiens); assay: Potency index, ratio of test compound residence time to ricolinostat residence time in full length HDAC6-NanoLuc fusion protein (unknown origin) expressed in HeLa cells by NanoBRET assay; assay type: cell-based
[13] = Lipophilicity, logP of the compound; assay type: physicochemical; conditions: octanol/water

inhibition [1]: Active | pKa [5]: 8.77 | half-life [6]: 1.92 h | inhibition [8]: Dde | fold change (FC) [12]: 2 | logP [13]: 3.41
Compound: CC(C)N(Cc1ccc(C(=O)NO)cc1)S(=O)(=O)c1cc(F)c(F)c(F)c1F
Activity (MV4-11 [2]): 2.28% | viability at 0.25 µM (MV4-11 [3]): 82% | IC50 at 72 h [4]: 10.1 µM | Activity (MB002): Active | Activity (MV4-11 [7]): 3.59% | viability at 0.75 µM (MV4-11 [9]): 85.7% | viability at 2 µM (MV4-11 [10]): 32.9% | viability at 1 µM (MV4-11 [11]): 56.3%
